Reference: patent US20210290513A1, “COMPOSITION COMPRISING KAKKALIDE” (LG HOUSEHOLD & HEALTH CARE LTD., priority 2020, published 2021)

Experiments:
Type in all cases: cell-based
[1] = tested on: type I collagen synthesis in human-derived fibroblasts; test: Type I collagen synthesis in human-derived fibroblasts (PICP EIA kit); conditions: for Increase rate (%) of collagen synthesis: relative to negative control; for Amount of type I collagen production: negative control 151.4
Experimental: A sample was added to a human-derived fibroblast culture medium to evaluate the effect of promoting type I collagen synthesis at the cellular level. The synthesized collagen was quantified using a Procollagen Type I C-Peptide Enzyme Immunoassay kit (PICP EIA kit). In order to measure the amount of collagen synthesis, a compound of Formula 1 was added to the fibroblast culture medium (Dulbecco's Modified Eagle Medium (DMEM)) so that the final concentration of compound of Formula 1 was 0.1 ppm, 1 ppm, or 10 ppm in each medium, and Genistein was also added to the fibroblast culture medium (Dulbecco's Modified Eagle Medium (DMEM)) so that final concentration of Genistein was 0.1 ppm, 1 ppm, or 10 ppm. After culturing for 48 hours, and then the culture medium was taken, and, by using the PICP EIA kit, the degree of type I collagen synthesis at each concentration was measured at 450 nm using a spectrophotometer. In order to compare the effect, the culture medium of fibroblasts without sample treatment was used as a negative control, and 10 ng/ml TGF-β was used as a positive control, and the degrees of collagen synthesis therein were measured in the same manner as for testing an added sample. A rate of increase in collagen synthesis was calculated as a ratio of the amount of collagen production relative to that of the negative control, and the results are shown in Table 2. The experiment was performed three times for each sample, and averages of measurements were obtained.

B-16 mouse melanoma cell = test: Total melanin amount in mouse melanoma cell culture (brightening effect); conditions: B16, 72 h, B-16 melanoma cells cultured three days, vs negative control (DMSO), read-out: Inhibition rate (%) of melanin production
Experimental: In order to evaluate a brightening effect according to inhibition of melanogenesis, an extract was added to a mouse melanoma cell (B-16 mouse melanoma cell) culture, and the total amount of melanin was measured according to a method described in Lotan R. et al. (Cancer Res. 40:3345-3350, 1980). For this experiment, toxicity with respect to the mouse melanoma cells was first evaluated, and the brightening effect was evaluated at a concentration not inducing toxicity. Dimethyl sulfoxide (DMSO) was used as a negative control, and arbutin was used as a positive control.
Specifically, A compound of Formula 1 was added to a medium of each sample so that the final concentration of the compound of Formula 1 is 1 ppm, 10 ppm, 100 ppm, or 500 ppm, and Daidzein was also added to the medium so that the final concentration of Daidzein is 1 ppm, 10 ppm, 100 ppm, or 500 ppm. Arbutin was added to the medium so that the final concentration was 100 ppm. In each of the mediums, melanoma cells were cultured for three days. Subsequently, the cells were treated with trypsin, detached from the culture plate, and centrifuged, and then melanin was extracted. The detached cells were boiled for 10 minutes by adding 1 ml of a sodium hydroxide solution (1 N concentration) so that melanin was dissolved, and by measuring an absorbance at 400 nm using a spectrophotometer, the amount of melanin production was measured.
The amount of melanin was measured by a method of indicating absorbance per unit cell count (1×10^6 cells), The amount of melanin production in each experimental group with respect to the negative control was calculated as a relative value, and the value obtained by subtracting the amount of melanin production in each experimental group from 100% of the melanin production amount in the negative control group was expressed as the inhibition rate (%). The experiment was performed three times for each sample, and averages of measurements were obtained.

AQP3 = AQP3 mRNA expression in human keratinocytes (real-time quantitative PCR); conditions: HaCaT, negative control normalized to 1.0
Experimental: (§1) Human keratinocytes (HaCaT) were dispensed into a 6-well cell culture plate at 2×10^5 cells/well and cultured for 24 hours in a DMEM medium containing 10% fetal bovine serum (FBS). The medium was replaced with a DMEM medium without 10% FBS and calcium (Ca^2+), and the cultured cells were treated with the compound of Chemical Formula 1, which had been diluted with a medium, for 24 hours. After the 24 hours had passed, the cells were recovered and then washed with a cold phosphate buffer solution (PBS), and total RNA was extracted using an RNeasy mini kit (Qiagen, Germany). A reverse transcription reaction was performed using RNA and a cDNA Synthesis kit (PhileKorea, Korea). The synthesized cDNA was diluted with water after being quantified, and the same amount thereof was used for all reactions. HAS2, HAS3, and AQP3 primers from a TaqMan® Universal Master Mix II and TaqMan® Gene Expression Assays (Thermo Fisher, USA) were used. Real-time quantitative polymerase chain reaction (PCR) was carried out using a StepOnePlus® Real-time PCR System (Applied Biosystems, USA). The experimental results were obtained through calculation performed by a ΔΔCt method based on a housekeeping gene glyceraldehyde-3-phosphate dehydrogenase (GAPDH). The levels of HAS2, HAS3, and AQP3 gene expression in each sample were quantified based on the mRNA expression level (normalized to 1.0) of the negative control to which the sample was not added, and the results are shown in Table 3. As a positive control, 10 ng/ml EGF recombinant human protein (Life Technologies, USA) was used.

P. aeruginosa = test: Minimum inhibitory concentration, serial dilution method; conditions: MHB2 medium, about 10^6/well
Experimental: (§2) This experiment was carried out by a serial dilution method and a method of measuring a minimum inhibitory concentration (MIC), using an MHB2 medium (for bacteria) or a PDB medium (for fungi). The bacteria or fungi were inoculated at about 10^6/well.

E. coli = test: as above; conditions: MHB2 medium, about 10^6/well
Experimental: as §2

S. aureus = test: as above; conditions: MHB2 medium, about 10^6/well
Experimental: as §2

Pityrosporum ovale = test: as above; conditions: about 10^6/well
Experimental: as §2

C. albicans = test: as above; conditions: PDB medium, about 10^6/well
Experimental: as §2

A. niger = test: as above; conditions: PDB medium, about 10^6/well
Experimental: as §2

HAS2 = HAS2 mRNA expression in human keratinocytes (real-time quantitative PCR); conditions: HaCaT, negative control normalized to 1.0
Experimental: as §1

[2] = tested on: Wnt/β-catenin signaling pathway; test: Wnt/β-catenin signaling pathway activation, TOPflash luciferase reporter in human dermal papilla cells; conditions: untreated control = 100
Experimental: The effect of the compound of Chemical Formula 1 on the activation of the Wnt/β-catenin signaling pathway was investigated using TOPflash (T-cell factor reporter plasmid) Kit (Millipore, USA). Human dermal papilla cells were inoculated into a 24-well plate at 2×10^5/well, cultured for 24 hours, treated with the compound of Chemical Formula 1 so that the concentration was 10 μg/ml, and then additionally cultured for 15 hours, and firefly luciferase activity was subsequently measured using a dual luciferase assay kit (Promega, USA).
In order to accurately measure the luciferase activity, the experiment was performed three times for each sample, an increase rate (%) was calculated as a ratio of activity relative to that of a control was calculated, and the results are shown in Table 5. The negative control was an untreated group. As a positive control, 6-bromoindirubin-3′-oxime (BIO) was used, and BIO is a material known to inhibit GSK-3 in the Wnt signaling system.

HAS3 = HAS3 mRNA expression in human keratinocytes (real-time quantitative PCR); conditions: HaCaT, negative control normalized to 1.0
Experimental: as §1

dermal papilla cells = test: Dermal papilla cell proliferation (CCK-8); conditions: 100 ppm, CCK-8 on day 5, Control (DMEM) = 1.00
Experimental: This experiment was performed using the following media 1) to 3):
1) DMEM (10% FBS, 1% P/S)
2) Depletion medium: 5% charcoal-stripped, FBS-containing, phenol red-free DMEM
3) Serum-free (SF) medium: DMEM (1% P/S).
On days 0 to 5, the following various experiments were performed to confirm a dermal papilla cell proliferation effect.
Day 0: At 10 a.m., cells were seeded (5,000 cells/well)
Day 1: At 10 a.m., after changing the depletion medium, cells were cultured for 24 hours.
Day 2: At 10 a.m., CCK-8 was measured (average initial value: 0.586) before the cells were treated with a sample, and subsequently, cells were treated with a sample.

In the case of TGF-β, the “Increase rate (%) of collagen synthesis” value ([1]; 10 ng/ml, positive control) is reported as 13.84% and the “Amount of type I collagen production” value ([1]; 10 ng/ml, positive control) is reported as 172.35 ng/mL.
Work on O=c1c(-c2ccc(O)cc2)coc2cc(O)ccc12 [Daidzein] yielded an inhibition at 1 ppm (B-16 mouse melanoma cell) of 18.7%, an inhibition at 10 ppm (B-16 mouse melanoma cell) of 16.4% and an inhibition at 100 ppm (B-16 mouse melanoma cell) of 20.8%. It also gave an inhibition at 500 ppm (B-16 mouse melanoma cell) of 30.2%.
For O=c1c(-c2ccc(O)cc2)coc2cc(O)cc(O)c12 [Genistein], the “Increased AQP3 mRNA amount” value (AQP3; 10 ppm, 24 hours) was 1.09, the “Increased AQP3 mRNA amount” value (AQP3; 100 ppm, 24 hours) was 2.47 and the “Increase rate (%) of collagen synthesis” value ([1]; 0.1 ppm, 48 hours) was 2.53%. For the same compound, the “Amount of type I collagen production” value ([1]; 0.1 ppm, 48 hours) was 155.24 ng/mL, the “Increase rate (%) of collagen synthesis” value ([1]; 1 ppm, 48 hours) was 4.85% and the “Amount of type I collagen production” value ([1]; 1 ppm, 48 hours) was 158.75 ng/mL. For the same compound, the “Increase rate (%) of collagen synthesis” value ([1]; 10 ppm, 48 hours) was 8.59%, the “Amount of type I collagen production” value ([1]; 10 ppm, 48 hours) was 165.93 ng/mL and the “Minimum inhibitory concentration (%) P. aeruginosa” value (P. aeruginosa) was 0.07%. The “Minimum inhibitory concentration (%) E. coli” value (E. coli) was 0.1%, the “Minimum inhibitory concentration (%) S. aureus” value (S. aureus) was 0.03% and the “Minimum inhibitory concentration (%) Pityrosporum ovale” value (Pityrosporum ovale) was 0.0005%. For the same compound, the “Minimum inhibitory concentration (%) C. albicans” value (C. albicans) was 0.08%, the “Minimum inhibitory concentration (%) A. niger” value (A. niger) was 0.2% and the “Increased HAS2 mRNA amount” value (HAS2; 10 ppm, 24 hours) was 1.06. For the same compound, the “Increased HAS2 mRNA amount” value (HAS2; 100 ppm, 24 hours) was 2.74, the “Increase rate (%) of luciferase activity” value ([2]; 10 μg/ml, 15 hours) was 140% and the “Increased HAS3 mRNA amount” value (HAS3; 10 ppm, 24 hours) was 2.86. The “Increased HAS3 mRNA amount” value (HAS3; 100 ppm, 24 hours) was 3.34 and the “Average (ratio) dermal papilla cell proliferation” value (dermal papilla cells) was 1.10.
For O=C1Nc2cc(Br)ccc2/C1=C1/Nc2ccccc2/C1=N\O [BIO, 6-bromoindirubin-3′-oxime], the “Increase rate (%) of luciferase activity” value ([2]; 1 μM, positive control) was 153%.
With COc1ccc(-c2coc3cc(O[C@@H]4O[C@H](CO[C@@H]5OC[C@@H](O)[C@H](O)[C@H]5O)[C@@H](O)[C@H](O)[C@H]4O)c(OC)c(O)c3c2=O)cc1 [Chemical Formula 1, kakkalide] the “Increased AQP3 mRNA amount” value (AQP3; 10 ppm, 24 hours) was 1.75, the “Increased AQP3 mRNA amount” value (AQP3; 100 ppm, 24 hours) was 4.17 and the “Increase rate (%) of collagen synthesis” value ([1]; 0.1 ppm, 48 hours) was 4.19%. The “Amount of type I collagen production” value ([1]; 0.1 ppm, 48 hours) was 157.74 ng/mL, the “Increase rate (%) of collagen synthesis” value ([1]; 1 ppm, 48 hours) was 12.56% and the “Amount of type I collagen production” value ([1]; 1 ppm, 48 hours) was 170.41 ng/mL. For the same compound, the “Increase rate (%) of collagen synthesis” value ([1]; 10 ppm, 48 hours) was 16.07%, the “Amount of type I collagen production” value ([1]; 10 ppm, 48 hours) was 175.72 ng/mL and the “Minimum inhibitory concentration (%) P. aeruginosa” value (P. aeruginosa) was 0.05%. For the same compound, the “Minimum inhibitory concentration (%) E. coli” value (E. coli) was 0.05%, the “Minimum inhibitory concentration (%) S. aureus” value (S. aureus) was 0.01% and the “Minimum inhibitory concentration (%) Pityrosporum ovale” value (Pityrosporum ovale) was 0.0003%. The “Minimum inhibitory concentration (%) C. albicans” value (C. albicans) was 0.05%, the “Minimum inhibitory concentration (%) A. niger” value (A. niger) was 0.1% and the inhibition at 1 ppm (B-16 mouse melanoma cell) was 35.3%. It also gave an inhibition at 10 ppm (B-16 mouse melanoma cell) of 48%, an inhibition at 100 ppm (B-16 mouse melanoma cell) of 57.6% and an inhibition at 500 ppm (B-16 mouse melanoma cell) of 68.4%. For the same compound, the “Increased HAS2 mRNA amount” value (HAS2; 10 ppm, 24 hours) was 2.28, the “Increased HAS2 mRNA amount” value (HAS2; 100 ppm, 24 hours) was 6.64 and the “Increase rate (%) of luciferase activity” value ([2]; 10 μg/ml, 15 hours) was 160%. The “Increased HAS3 mRNA amount” value (HAS3; 10 ppm, 24 hours) was 3.97, the “Increased HAS3 mRNA amount” value (HAS3; 100 ppm, 24 hours) was 5.23 and the “Average (ratio) dermal papilla cell proliferation” value (dermal papilla cells) was 1.34.
For “EGF: EGF recombinant human protein (Life Technologies, USA), positive control”, the “Increased AQP3 mRNA amount” value (AQP3; 10 ng/ml, positive control) was 1.09, the “Increased HAS2 mRNA amount” value (HAS2; 10 ng/ml, positive control) was 16.42 and the “Increased HAS3 mRNA amount” value (HAS3; 10 ng/ml, positive control) was 5.24.
For zinc pyrithione, the “Minimum inhibitory concentration (%) P. aeruginosa” value (P. aeruginosa) was 0.002%, the “Minimum inhibitory concentration (%) E. coli” value (E. coli) was 0.002% and the “Minimum inhibitory concentration (%) S. aureus” value (S. aureus) was 0.001%. For the same compound, the “Minimum inhibitory concentration (%) Pityrosporum ovale” value (Pityrosporum ovale) was 0.0002%, the “Minimum inhibitory concentration (%) C. albicans” value (C. albicans) was 0.02% and the “Minimum inhibitory concentration (%) A. niger” value (A. niger) was 0.02%.
OC[C@H]1O[C@@H](Oc2ccc(O)cc2)[C@H](O)[C@@H](O)[C@@H]1O [Arbutin, arbutin] gave an inhibition at 100 ppm (B-16 mouse melanoma cell) of 56%.
